Paper PMC9920413, “New Bicyclic Pyridine-Based Hybrids Linked to the 1,2,3-Triazole Unit: Synthesis via Click Reaction and Evaluation of Neurotropic Activity and Molecular Docking” (Molecules, 2023)
Where “and” joins values, the source holds several entries; their conditions need not be identical. Equal entries are not always repeated.

Key:
mice [1] = assay: in vivo; conditions: dead animals after 24 h
Description: (§1) Adverse neurotoxic (muscle relaxant) effects of compounds were studied at doses of 50 to 500 mg/kg when administered intraperitoneally, as well as reference drugs in effect at anticonvulsant doses. Myorelaxation was investigated with the test of a “rotating rod” in mice. To this end, mice were planted on a metal rod with a corrugated rubber coating, which rotated at a speed of 5 revolutions per minute. The number of animals that cnot stay on it for 2 min was determined. To determine the ED50, neurotoxic TD50, and LD50, the statistical method of penetration by Litchfield and Wilcoxon was used.

[2] = system: pentylenetetrazole (PTZ)-induced convulsions; assay: Antagonism to pentylenetetrazole (PTZ) convulsions; assay type: in vivo; conditions: for TI: therapeutic index TI = LD50/ED50; for ED50: Mus musculus, read-out: ED50 (by PTZ antagonism)
Description: (§2) The study of the anticonvulsant activity of hybrids 7a–u was assessed by evaluating the antagonism to pentylenetetrazole (PTZ), thiosemicarbazide convulsive seizures, and maximal electroshock-induced seizures (MES). The PTZ-induced test is considered an experimental model for the clonic component of epilepsy seizures and the prognostic anxiolytic activity of the compounds. PTZ is a common convulsive agent used in animal models to investigate the mechanisms of seizures. The model of thiosemicarbazide (TSC) seizures (affecting the exchange of GABA) causes clonic seizures similar to pentylenetetrazole ones. The MES test is used as an animal model for the generalization of tonic seizures in epilepsy. The neurotoxicity and side effects of the compounds (movement coordination disorder, myorelaxation, and ataxia) were also studied on mice with the “rotating rod”[29] test.
The anticonvulsant effect of the newly synthesized compounds was investigated by tests comprising pentylenetetrazole, thiosemicarbazide convulsions, and maximal electroshock (MES). Outbred mice (weight 18–22 g) were used for the study. […] Each animal is placed into an individual plastic cage for observation lasting 1 h. Seizures and clonic convulsions were recorded. […] The control animals were administered as an emulsifier. Every dose of each test compound was studied in six animals.
as §1

mouse = assay: Elevated plus maze (EPM) test; assay type: in vivo; conditions: 50 mg/kg i.p., 5 min; for Number of Entries into the Closed Arms: control 9.4 ± 1.6; for Time Spent in the Center: control 28.2 ± 3.12; for Time Spent in Closed Arms: control 269.2 ± 10.4
From the text: Elevated plus maze—EPM test. Anti-anxiety and sedative effects were studied on mouse a model of the “elevated plus maze”. The labyrinth is a cruciform machine raised above the floor, with a pair of open and closed sleeves opposed to each other. Normal animals prefer to spend most of their time in the closed (dark) sleeves of the labyrinth. The anxiolytic effect of the compounds was estimated by the increase in the number of entries into open (light) sleeves and the time spent in them without increasing the total motor activity. This records the time spent in the closed sleeve and the number of attempts to enter the installation center. In the above model, the test compounds and the reference drug were injected intraperitoneally before the experiments. The control animals were administered as an emulsifier. Results were processed statistically (p < 0.05).

mice [3] = assay: Rotating rod test (neurotoxicity, myorelaxation); assay type: in vivo; conditions: i.p., myorelaxation in 50% of animals
Description: as §2, §1

rats [4] = assay: Open field test; assay type: in vivo; conditions: 50 mg/kg i.p.; for Cells Examination, amount (absolute data during 5 min): control 2.4 ± 0.67; for Vertical Displacement, amount (absolute data during 5 min): control 7.0 ± 2.14; for Horizontal Displacement, amount (absolute data during 5 min): control 21.6 ± 2.25
Description: Open field test. The research-motor behavior of rats was studied on a modified “open field” model. For this purpose, an installation was used, the bottom of which is divided into squares with holes (cells). Experiments were performed in the daytime with natural light. Within 5 min of the experiment, the indicators of sedative and activating behavior were determined, namely the number of horizontal movements, standing on the hind legs (vertical movements), and sniffing of the cells. The number of animals on this model was eight for each compound, control, and reference drug.

mice [5] = assay: Forced swimming test; conditions: 50 mg/kg, 6 min; for Total Time of Immobilization: control 42.0 ± 7.24; for Total Time of Active Swimming: control 318.0 ± 8.36;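 for all read-outs here: mice made to swim in a water-filled glass vessel under natural light, with durations of active swimming and immobility recorded across the 6 min session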
Description: Forced swimming test. To assess “despair and depression”, the “compelling swimming” model was used. Experimental animals were forced to swim in a glass container (height 22 cm, diameter 14 cm), filled 1/3 with water. […] The latent period of immobilization, the total duration of active swimming and immobilization are fixed at 6 min (the experiments were conducted under natural light).

[6] = system: thiosemicarbazide (TSC)-induced convulsions; assay: Thiosemicarbazide (TSC) seizures; assay type: in vivo, mice; conditions: mice; for Latency of Convulsions, Induced by TSC, M ± M: compound 100 mg/kg i.p. 45 min before TSC 18 mg/kg s.c.; for response vs control in vivo at 100 mg/kg: Mus musculus, ip, read-out: Latency of Convulsions, Induced by TSC, I (index of latent period of TSC seizures)
Description: as §2
Thiosemicarbazide, an antimetabolite of GABA inhibitor (glutamic acid decarboxylase) in the brain, is administered subcutaneously to mice at a dose of 18 mg/kg as a 0.5% solution, which causes clonic convulsions in animals. Anti-thiosemicarbazide activity was evaluated based on the latency time of the onset of seizures. Compounds were administered intraperitoneally at doses of 100 mg/kg in suspension with carboxymethylcellulose and Tween-80 45 min before administration of thiosemicarbazide.

in vivo = conditions: outbred, mouse, in vivo; mice, dead animals after 24 h
Description: as §1

[7] = Rotating rod test (neurotoxicity, myorelaxation); assay type: in vivo; conditions: outbred, mouse, in vivo, ip, mice, myorelaxation in 50% of animals
Description: as §2, §1

rats [8] = assay: Electroshock retrograde amnesia, conditioned response of passive avoidance (CRPA); assay type: in vivo; conditions: 50 mg/kg, study for 5 min; for The Time Spent in the Light Chamber during the Training of the CRPA, First Day: control 280.0 ± 7.5; for The Time Spent in the Light Chamber When Playing CRPA + MESH after 24 h, Second Day: control 281.0 ± 6.1
Description: Test for learning and memory. The antiamnesic properties of the compounds were studied using an electroshock amnesia model modified by J. Bures, O. Buresova. In rats, a conditioned passive avoidance reaction (CRPA) to a dark-light setting was developed, while the training of the animals with CRPA was recorded. The residence times in the light and dark compartments were recorded for 5 min (300 s). Then, in the dark compartment, the animal received a single current shock (0.4 mA) through the electrode floor (training). To obtain amnesia, a maximum electroconvulsive seizure is induced in animals (conducting a maximum electric current of 50 Hz for 0.2 s through corneal electrodes). Conducting an electric shock immediately after training causes the erasure of the memory trace. The test for reproduction is carried out 24 h after training—after the development of CRPA. During this period, the control animals forget the training and prefer to be in the dark part of the chamber. An increase in the time spent by rats in the light compartment compared to the control on the second day indicates the presence of antiamnestic properties of the compounds.

[9] = mice, i.p. 45 min before PTZ 90 mg/kg s.c., confidence limits in brackets, p = 0.05
[10] = compound 100 mg/kg i.p., relative to control = 1.0

6-{4-[(4-{[(4-Cyano-1-methyl-5,6,7,8-tetrahydroisoquinolin-3-yl)oxy]methyl}-1H-1,2,3-triazol-1-yl)acetyl]piperazin-1-yl}-3,3-dimethyl-1-propyl-3,4-dihydro-1H-pyrano [3,4-c]pyridine-5-carbonitrile [7f]
LD50 (mice [1]): 810 (686 ÷ 956) mg/kg | ED50 (by PTZ antagonism) [2, 9]: 28 (22.2 ÷ 35.3) mg/kg | TI [2]: 28.9 | Time Spent in the Open Arms (mouse; control 2.6 ± 1.6): 16.0 ± 2.09 s | Number of Entries into the Closed Arms (mouse): 3.0 ± 0.89 | Time Spent in the Center (mouse): 22.0 ± 6.32 s | Time Spent in Closed Arms (mouse): 264.0 ± 13.48 s | TD50 (mice [3]): >500 mg/kg | Cells Examination, amount (absolute data during 5 min) (rats [4]): 3.2 ± 1.03 | Vertical Displacement, amount (absolute data during 5 min) (rats [4]): 10.8 ± 3.67 | Horizontal Displacement, amount (absolute data during 5 min) (rats [4]): 39.2 ± 4.92 | Total Time of Immobilization (mice [5]): 66.0 ± 4.48 s | Total Time of Active Swimming (mice [5]): 296.0 ± 16.85 s | Latency of Convulsions, Induced by TSC, M ± M [6]: 40.6 ± 1.11 min | Latency of Convulsions, Induced by TSC, I (index of latent period of TSC seizures) [6, 10]: 4.06

Cc1nc(OCc2cn(CC(=O)N3CCN(c4nc(C)c5c(c4C#N)CC(C)(C)OC5)CC3)nn2)c(C#N)c2c1COC(C)(C)C2 [7m, 6-{4-[(4-{[(5-Cyano-3,3,8-trimethyl-3,4-dihydro-1H-pyrano [3,4-c]pyridin-6-yl)oxy]methyl}-1H-1,2,3-triazol-1-yl)acetyl]piperazin-1-yl}-3,3,8-trimethyl-3,4-dihydro-1H-pyrano [3,4-c]pyridine-5-carbonitrile]
LD50 at 24 h (in vivo): 820 mg/kg | ED50 [2, 9]: 15 mg/kg | TI [2]: 54.7 | Time Spent in the Open Arms (mouse; control 2.6 ± 1.6, 50 mg/kg): 66.4 s and 66.4 ± 7.78 s | Number of Entries into the Closed Arms (mouse): 6.4 ± 1.11 | Time Spent in the Center (mouse): 48.8 ± 5.14 s | Time Spent in Closed Arms (mouse): 175.4 ± 6.23 s | TD50 at 2 min [7]: > 500 mg/kg | The Time Spent in the Light Chamber during the Training of the CRPA, First Day (rats [8]): 282.0 ± 6.8 s | The Time Spent in the Light Chamber When Playing CRPA + MESH after 24 h, Second Day (rats [8]): 296.0 ± 5.4 s | Cells Examination, amount (absolute data during 5 min) (rats [4]): 13.4 ± 5.56 | Vertical Displacement, amount (absolute data during 5 min) (rats [4]): 12 ± 3.95 | Horizontal Displacement, amount (absolute data during 5 min) (rats [4]): 59.8 ± 9.58 | Total Time of Immobilization (mice [5]): 5.0 ± 1.2 s | Total Time of Active Swimming (mice [5]): 355.0 ± 5.0 s | response vs control in vivo at 100 mg/kg [6, 10]: 366% | Latency of Convulsions, Induced by TSC, M ± M [6]: 36.6 ± 1.11 min

Cc1nc(N2CCN(C(=O)Cn3cc(COc4nc(-c5ccco5)c5c(c4C#N)CCCC5)nn3)CC2)c(C#N)c2c1COC(C)(C)C2 [7j, 6-(4-{[4-({[4-Cyano-1-(2-furyl)-5,6,7,8-tetrahydroisoquinolin-3-yl]oxy}methyl)-1H-1,2,3-triazol-1-yl]acetyl}piperazin-1-yl)-3,3,8-trimethyl-3,4-dihydro-1H-pyrano [3,4-c]pyridine-5-carbonitrile]
LD50 at 24 h (in vivo): 930 mg/kg | ED50 [2, 9]: 22 mg/kg | TI [2]: 42.3 | Time Spent in the Open Arms (mouse; control 2.6 ± 1.6): 19.6 ± 3.5 s | Number of Entries into the Closed Arms (mouse): 5.9 ± 2.1 | Time Spent in the Center (mouse): 19.2 ± 4.15 s | Time Spent in Closed Arms (mouse): 261.2 ± 20.8 s | TD50 at 2 min [7]: > 500 mg/kg | The Time Spent in the Light Chamber during the Training of the CRPA, First Day (rats [8]): 293.0 ± 7.2 s | The Time Spent in the Light Chamber When Playing CRPA + MESH after 24 h, Second Day (rats [8]): 120.0 ± 5.8 s | Cells Examination, amount (absolute data during 5 min) (rats [4]): 9.8 ± 3.53 | Vertical Displacement, amount (absolute data during 5 min) (rats [4]): 10 ± 3.39 | Horizontal Displacement, amount (absolute data during 5 min) (rats [4]): 54.6 ± 10.03 | Total Time of Immobilization (mice [5]): 14.0 ± 3.37 s | Total Time of Active Swimming (mice [5]): 346.0 ± 11.35 s | response vs control in vivo at 100 mg/kg [6, 10]: 410% | Latency of Convulsions, Induced by TSC, M ± M [6]: 41.0 ± 3.95 min

Cc1nc(N2CCN(C(=O)Cn3cc(COc4nc(C(C)C)c5c(c4C#N)CCC5)nn3)CC2)c(C#N)c2c1COC(C)(C)C2 [7a, 6-{4-[(4-{[(4-Cyano-1-isopropyl-6,7-dihydro-5H-cyclopenta[c]pyridin-3-yl)oxy]methyl}-1H-1,2,3-triazol-1-yl)acetyl]piperazin-1-yl}-3,3,8-trimethyl-3,4-dihydro-1H-pyrano [3,4-c]pyridine-5-carbonitrile]
LD50 at 24 h (in vivo): 890 mg/kg | ED50 [2, 9]: 20 mg/kg | TI [2]: 44.5 | Time Spent in the Open Arms (mouse; control 2.6 ± 1.6): 15.0 ± 2.1 s | Number of Entries into the Closed Arms (mouse): 5.6 ± 2.1 | Time Spent in the Center (mouse): 22.4 ± 3.99 s | Time Spent in Closed Arms (mouse): 262.6 ± 14.6 s | TD50 at 2 min [7]: > 500 mg/kg | The Time Spent in the Light Chamber during the Training of the CRPA, First Day (rats [8]): 286.0 ± 4.3 s | The Time Spent in the Light Chamber When Playing CRPA + MESH after 24 h, Second Day (rats [8]): 298.0 ± 6.9 s | Cells Examination, amount (absolute data during 5 min) (rats [4]): 8.6 ± 1.89 | Vertical Displacement, amount (absolute data during 5 min) (rats [4]): 6.8 ± 3.42 | Horizontal Displacement, amount (absolute data during 5 min) (rats [4]): 44.4 ± 10.1 | Total Time of Immobilization (mice [5]): 18.6 ± 3.2 s | Total Time of Active Swimming (mice [5]): 341.4 ± 6.2 s | response vs control in vivo at 100 mg/kg [6, 10]: 430% | Latency of Convulsions, Induced by TSC, M ± M [6]: 43.0 ± 5.2 min
